Drawing on ChEMBL document CHEMBL5653616, “FRAX597, a small molecule inhibitor of the p21-activated kinases, inhibits tumorigenesis of neurofibromatosis type 2 (NF2)-associated Schwannomas” (J Biol Chem, 2013), this text covers inhibition, Activity and IC50 for four molecules.

The target in assay [1] is Proto-oncogene tyrosine-protein kinase receptor Ret (Homo sapiens) (UniProt P07949). Conditions: dose 100.0 nM.
Description: Inhibition of RET (unknown origin) at 100 nM by Z-LYTE biochemical assay relative to control
In assay [2] the test system is SC4. Description: Downregulation of RET expression in mouse SC4 [Mouse schwannoma] cells by Western blotting analysis. In kind it is functional, cell-based. (A western blot detects proteins with antibodies after separation by electrophoresis.)
Assay [3] in a line: Inhibition of PAK1 V342F mutant (unknown origin) in presence of ATP by KinaseGlo assay.
Assay [4] in a line: Induction of cell cycle arrest in mouse SC4 [Mouse schwannoma] cells assessed as accumulation of cells at G1 phase at 1 uM measured upto 96 hrs by propidium iodide staining based flow cytometeric analysis (reference value: 50%). In kind it is functional.
Assay [5] is described as follows: Induction of cell cycle arrest in mouse SC4 [Mouse schwannoma] cells assessed as accumulation of cells at G2/M phase at 1 uM measured upto 96 hrs by propidium iodide staining based flow cytometeric analysis (reference value: 22%). In kind it is functional.
Assay [6] addresses Serine/threonine-protein kinase PAK 1 (Mus musculus, UniProt O88643).
Description: Inhibition of PAK1 in mouse SC4 [Mouse schwannoma] cells assessed as reduction in p-PAK1 at serine 144 residue at 1 to 5 uM incubated for 2 hrs by Western blotting analysis
Assay [7] has as its system SC4. Description: Antitumor activity against Nf2 knockout mouse SC4 [Mouse schwannoma] cells harbouring pLuc-mCherry implanted in NOD/SCID mouse assessed as reduction in tumor weight at 100 mg/kg, po qd administered for 14 days. In kind it is functional, organism-based. Particulars: time 14.0 day.
Assay [8] deals with SC4. As to the kind of experiment: Downregulation of TEK1 expression in mouse SC4 [Mouse schwannoma] cells by Western blotting analysis. In kind it is functional, cell-based.
Assay [9] relates to SC4. Description: Downregulation of YES1 expression in mouse SC4 [Mouse schwannoma] cells by Western blotting analysis. It counts as functional, cell-based.
The target in assay [10] is Serine/threonine-protein kinase PAK 5 (Homo sapiens) (UniProt Q9P286). Particulars: dose 100.0 nM.
Description: Inhibition of PAK7 (unknown origin) at 100 nM by Z-LYTE biochemical assay relative to control
A short description of assay [11]: Inhibition of PAK1 V342Y mutant (unknown origin) in presence of ATP by KinaseGlo assay. On the technique in general: Kinase-Glo reads ATP consumption through a luciferase reaction.
Assay [12] addresses Angiopoietin-1 receptor (Homo sapiens) (UniProt Q02763). Particulars: dose 100.0 nM.
Description: Inhibition of TEK (unknown origin) at 100 nM by Z-LYTE biochemical assay relative to control
For assay [13], the target named is Serine/threonine-protein kinase PAK 6 (Homo sapiens) (UniProt Q9NQU5). Particulars: dose 100.0 nM.
Description: Inhibition of PAK6 (unknown origin) at 100 nM by Z-LYTE biochemical assay relative to control
Assay [14] concerns the target T1, Serine/threonine-protein kinase PAK 4 (Homo sapiens, UniProt O96013). As to the kind of experiment: Inhibition of PAK4 (unknown origin) by Z-LYTE biochemical assay.
Target sequence in this assay (O96013 whole entry): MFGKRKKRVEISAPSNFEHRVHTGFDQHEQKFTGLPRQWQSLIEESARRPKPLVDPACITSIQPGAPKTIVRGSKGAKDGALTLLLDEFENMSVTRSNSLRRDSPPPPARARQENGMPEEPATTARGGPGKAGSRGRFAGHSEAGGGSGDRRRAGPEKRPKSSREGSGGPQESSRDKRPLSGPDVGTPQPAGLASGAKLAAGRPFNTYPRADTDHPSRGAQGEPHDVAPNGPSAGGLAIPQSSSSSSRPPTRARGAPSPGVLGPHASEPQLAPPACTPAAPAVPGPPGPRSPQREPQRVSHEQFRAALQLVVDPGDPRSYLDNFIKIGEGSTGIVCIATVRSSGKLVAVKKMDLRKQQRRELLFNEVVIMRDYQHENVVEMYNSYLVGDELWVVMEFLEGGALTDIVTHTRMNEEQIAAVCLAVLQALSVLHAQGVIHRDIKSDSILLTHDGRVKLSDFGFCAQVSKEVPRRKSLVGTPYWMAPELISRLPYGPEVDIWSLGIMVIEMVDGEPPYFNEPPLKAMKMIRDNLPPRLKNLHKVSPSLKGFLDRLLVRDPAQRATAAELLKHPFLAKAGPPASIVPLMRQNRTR
For assay [15], the system named is SC4. As to the kind of experiment: Downregulation of CSF1R expression in mouse SC4 [Mouse schwannoma] cells by Western blotting analysis. It counts as functional, cell-based.
The target in assay [16] is Macrophage colony-stimulating factor 1 receptor (Homo sapiens) (UniProt P07333). Conditions: dose 100.0 nM.
Description: Inhibition of CSF1R (unknown origin) at 100 nM by Z-LYTE biochemical assay relative to control
Assay [17] deals with T1, Serine/threonine-protein kinase PAK 4. Conditions: dose 100.0 nM.
Target sequence in this assay (O96013 whole entry, looked up): as the sequence (O96013 whole entry) above
Description: Inhibition of PAK4 (unknown origin) at 100 nM by Z-LYTE biochemical assay relative to control
The subject of assay [18] is SC4. Description: Antiproliferative activity against mouse SC4 [Mouse schwannoma] cells assessed as reduction in cell viability at 1 uM measured upto 96 hrs by coulter counter analysis. It counts as functional, cell-based.
Assay [19] addresses Tyrosine-protein kinase Yes (Homo sapiens) (UniProt P07947). Conditions: dose 100.0 nM.
Description: Inhibition of YES1 (unknown origin) at 100 nM by Z-LYTE biochemical assay relative to control
A short description of assay [20]: Induction of cell cycle arrest in mouse SC4 [Mouse schwannoma] cells assessed as accumulation of cells at S phase at 1 uM measured upto 96 hrs by propidium iodide staining based flow cytometeric analysis (reference value: 27%). In kind it is functional. (In flow cytometry, cells or beads pass a laser one at a time.)
Assay [21] deals with SC4. Description: Induction of cell cycle arrest in mouse SC4 [Mouse schwannoma] cells assessed as accumulation of cells at sub-G1 phase at 1 uM measured upto 96 hrs by propidium iodide staining based flow cytometeric analysis. In kind it is functional.
Assay [22] addresses Serine/threonine-protein kinase PAK 2 (Homo sapiens) (UniProt Q13177). Particulars: dose 100.0 nM.
Description: Inhibition of PAK2 (unknown origin) at 100 nM by Z-LYTE biochemical assay relative to control
The test system of assay [23] is SC4. As to the kind of experiment: Antitumor activity against Nf2 knockout mouse SC4 [Mouse schwannoma] cells harbouring pLuc-mCherry implanted in NOD/SCID mouse assessed as reduction in tumor growth at 100 mg/kg, po qd administered for 14 days by bioluminescence imaging analysis. It counts as functional, organism-based. Particulars: time 14.0 day.
Assay [24] concerns the target Serine/threonine-protein kinase PAK 1 (Homo sapiens, UniProt Q13153). Description: Inhibition of TEV protease fused 6His-tagged PAK1 KD (249 to 545 residues) (unknown origin) expressed in Sf21 cells by Z-LYTE biochemical assay.

Molecules are shown by their SMILES. Active and inactive are the calls of the source. The calls are words filed in the database; no cut-off is given here.

Serine/threonine-protein kinase PAK 1 (Homo sapiens, UniProt Q13153), sequence (Q13153 whole entry, the tested form may be a part): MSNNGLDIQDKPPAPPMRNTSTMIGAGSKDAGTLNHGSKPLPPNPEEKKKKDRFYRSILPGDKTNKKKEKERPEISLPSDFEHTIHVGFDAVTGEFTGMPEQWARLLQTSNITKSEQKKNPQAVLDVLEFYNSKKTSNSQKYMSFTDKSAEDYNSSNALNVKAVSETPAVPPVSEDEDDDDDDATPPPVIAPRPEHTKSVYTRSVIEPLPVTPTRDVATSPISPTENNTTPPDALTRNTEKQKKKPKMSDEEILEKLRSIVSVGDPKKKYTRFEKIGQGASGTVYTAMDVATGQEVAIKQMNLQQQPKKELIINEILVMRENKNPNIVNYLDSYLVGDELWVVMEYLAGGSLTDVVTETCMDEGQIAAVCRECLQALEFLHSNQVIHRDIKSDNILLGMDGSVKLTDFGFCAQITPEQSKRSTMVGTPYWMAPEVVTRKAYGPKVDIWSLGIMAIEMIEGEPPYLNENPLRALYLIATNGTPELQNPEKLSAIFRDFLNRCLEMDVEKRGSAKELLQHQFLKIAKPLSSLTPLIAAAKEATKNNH
Macrophage colony-stimulating factor 1 receptor (Homo sapiens), sequence (P07333 whole entry): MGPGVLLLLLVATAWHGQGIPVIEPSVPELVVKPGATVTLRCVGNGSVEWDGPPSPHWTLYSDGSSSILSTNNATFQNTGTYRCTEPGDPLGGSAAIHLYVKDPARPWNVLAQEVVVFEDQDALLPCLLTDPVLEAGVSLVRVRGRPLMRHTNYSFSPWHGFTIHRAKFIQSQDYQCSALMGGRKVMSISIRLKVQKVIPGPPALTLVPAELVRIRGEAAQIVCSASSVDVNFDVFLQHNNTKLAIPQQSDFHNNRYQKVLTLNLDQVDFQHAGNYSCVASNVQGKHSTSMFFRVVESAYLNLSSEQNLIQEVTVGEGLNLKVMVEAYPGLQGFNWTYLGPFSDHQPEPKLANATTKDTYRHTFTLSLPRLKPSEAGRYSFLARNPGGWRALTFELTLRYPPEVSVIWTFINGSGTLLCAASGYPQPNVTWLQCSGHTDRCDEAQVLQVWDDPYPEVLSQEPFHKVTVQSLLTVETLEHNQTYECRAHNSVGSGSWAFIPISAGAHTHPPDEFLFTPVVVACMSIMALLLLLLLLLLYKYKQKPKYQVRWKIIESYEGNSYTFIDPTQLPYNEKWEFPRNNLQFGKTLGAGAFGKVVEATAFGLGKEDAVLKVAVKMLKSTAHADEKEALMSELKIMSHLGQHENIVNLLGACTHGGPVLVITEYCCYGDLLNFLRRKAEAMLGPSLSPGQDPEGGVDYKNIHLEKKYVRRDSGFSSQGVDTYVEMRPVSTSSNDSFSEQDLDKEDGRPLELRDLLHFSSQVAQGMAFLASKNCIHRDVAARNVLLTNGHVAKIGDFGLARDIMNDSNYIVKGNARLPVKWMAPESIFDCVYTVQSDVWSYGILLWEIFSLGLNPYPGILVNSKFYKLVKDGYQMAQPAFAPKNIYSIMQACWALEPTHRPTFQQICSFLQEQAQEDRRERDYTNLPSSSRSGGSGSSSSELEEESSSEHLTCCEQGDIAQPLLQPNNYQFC
Serine/threonine-protein kinase PAK 1 (Mus musculus, UniProt O88643), sequence (O88643 whole entry): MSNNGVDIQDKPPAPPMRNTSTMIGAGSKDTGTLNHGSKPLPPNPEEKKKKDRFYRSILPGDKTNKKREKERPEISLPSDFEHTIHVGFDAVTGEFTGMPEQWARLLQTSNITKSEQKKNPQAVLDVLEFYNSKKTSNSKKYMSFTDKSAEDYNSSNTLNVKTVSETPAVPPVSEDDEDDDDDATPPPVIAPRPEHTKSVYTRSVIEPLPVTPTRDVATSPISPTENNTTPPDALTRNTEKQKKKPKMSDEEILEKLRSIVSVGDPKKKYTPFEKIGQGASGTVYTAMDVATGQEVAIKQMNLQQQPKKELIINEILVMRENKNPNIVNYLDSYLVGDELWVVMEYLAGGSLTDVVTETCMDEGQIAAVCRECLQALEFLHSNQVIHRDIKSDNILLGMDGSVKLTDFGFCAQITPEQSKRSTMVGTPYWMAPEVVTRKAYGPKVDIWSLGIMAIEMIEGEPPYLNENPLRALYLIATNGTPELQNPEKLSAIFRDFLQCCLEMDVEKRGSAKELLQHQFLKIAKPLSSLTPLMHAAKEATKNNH
Tyrosine-protein kinase Yes (Homo sapiens), sequence (P07947 2-543 limits assumed): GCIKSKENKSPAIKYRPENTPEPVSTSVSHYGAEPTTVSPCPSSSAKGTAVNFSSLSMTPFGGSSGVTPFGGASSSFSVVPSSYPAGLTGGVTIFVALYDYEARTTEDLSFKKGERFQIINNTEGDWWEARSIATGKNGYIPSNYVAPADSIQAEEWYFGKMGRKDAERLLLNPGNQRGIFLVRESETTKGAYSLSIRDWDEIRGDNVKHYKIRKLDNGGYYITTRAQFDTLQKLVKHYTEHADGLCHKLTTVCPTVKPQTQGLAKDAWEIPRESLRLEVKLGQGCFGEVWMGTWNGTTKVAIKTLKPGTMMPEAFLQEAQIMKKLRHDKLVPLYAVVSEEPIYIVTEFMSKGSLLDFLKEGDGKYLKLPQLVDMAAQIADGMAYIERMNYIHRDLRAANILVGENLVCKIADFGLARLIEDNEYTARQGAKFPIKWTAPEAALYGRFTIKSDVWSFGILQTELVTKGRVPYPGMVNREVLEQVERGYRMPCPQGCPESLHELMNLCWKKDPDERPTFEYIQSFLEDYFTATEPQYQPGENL
Serine/threonine-protein kinase PAK 5 (Homo sapiens), sequence (Q9P286 whole entry, looked up): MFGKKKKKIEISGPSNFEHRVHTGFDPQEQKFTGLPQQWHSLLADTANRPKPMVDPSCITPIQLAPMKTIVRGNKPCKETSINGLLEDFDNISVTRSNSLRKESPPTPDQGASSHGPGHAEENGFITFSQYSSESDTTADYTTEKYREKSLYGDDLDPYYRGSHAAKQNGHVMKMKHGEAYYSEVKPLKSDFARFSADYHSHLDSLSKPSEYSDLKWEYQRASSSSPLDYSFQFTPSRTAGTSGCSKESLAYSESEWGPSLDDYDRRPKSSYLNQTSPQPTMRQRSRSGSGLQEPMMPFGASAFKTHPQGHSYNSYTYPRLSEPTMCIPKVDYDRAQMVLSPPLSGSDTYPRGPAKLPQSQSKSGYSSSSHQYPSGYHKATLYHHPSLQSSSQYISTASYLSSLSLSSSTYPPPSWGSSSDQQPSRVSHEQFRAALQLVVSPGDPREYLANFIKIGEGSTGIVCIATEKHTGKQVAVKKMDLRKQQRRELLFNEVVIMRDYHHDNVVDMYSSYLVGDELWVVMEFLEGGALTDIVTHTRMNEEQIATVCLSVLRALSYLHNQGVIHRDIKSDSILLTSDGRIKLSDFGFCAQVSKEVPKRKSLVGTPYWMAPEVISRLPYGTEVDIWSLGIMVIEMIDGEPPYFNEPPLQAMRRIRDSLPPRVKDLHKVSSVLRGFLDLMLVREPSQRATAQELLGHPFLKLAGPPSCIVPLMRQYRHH
Serine/threonine-protein kinase PAK 6 (Homo sapiens), sequence (Q9NQU5 whole entry, looked up): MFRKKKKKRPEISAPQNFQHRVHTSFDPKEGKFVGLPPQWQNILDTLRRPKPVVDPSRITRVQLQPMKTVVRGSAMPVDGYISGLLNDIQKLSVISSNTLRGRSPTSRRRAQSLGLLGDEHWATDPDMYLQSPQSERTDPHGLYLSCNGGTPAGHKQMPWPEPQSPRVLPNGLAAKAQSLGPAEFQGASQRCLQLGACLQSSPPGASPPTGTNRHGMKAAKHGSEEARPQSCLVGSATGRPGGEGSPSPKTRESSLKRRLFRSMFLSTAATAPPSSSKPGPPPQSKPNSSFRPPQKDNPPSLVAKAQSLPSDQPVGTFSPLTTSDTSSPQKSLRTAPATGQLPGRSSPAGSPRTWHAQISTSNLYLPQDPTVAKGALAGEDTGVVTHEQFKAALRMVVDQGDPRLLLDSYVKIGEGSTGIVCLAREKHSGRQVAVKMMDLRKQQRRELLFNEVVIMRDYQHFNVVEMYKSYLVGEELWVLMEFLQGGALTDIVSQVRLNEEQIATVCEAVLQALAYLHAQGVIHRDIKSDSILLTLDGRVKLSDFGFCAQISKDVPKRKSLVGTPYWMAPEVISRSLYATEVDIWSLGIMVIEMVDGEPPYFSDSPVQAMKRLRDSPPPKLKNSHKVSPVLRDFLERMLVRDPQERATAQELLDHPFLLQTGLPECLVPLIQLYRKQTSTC

Broadly, the inhibition is the share of the control response that was lost under treatment. A low value points to a weak effect. For orientation: IC50 means the concentration at which inhibition is half-maximal. With `CCn1c(=O)c(-c2ccc(-c3cncs3)cc2Cl)cc2cnc(Nc3ccc(N4CCN(C)CC4)cc3)nc21.Cl`, the inhibition in [1] came to 82%; in [10] it was 8%; in [12], 87%; in [13], 23%; in assay [16], 91%; in assay [17], 0%. In addition, the inhibition in [19] was found to be 87%; in assay [22] it was 93%. For the same molecule, the result in the assay on SC4 [2], in the assay on SC4 [7], in the assay on SC4 [8], with SC4 [9], in the assay on SC4 [15] and with SC4 [18] was Active. Moreover, in the assay on SC4 [23], the outcome was Active. Besides, the IC50 was more than 3000 nM in assay [3], 70 nM in assay [6], more than 2000 nM in assay [11] and more than 10000 nM in [14]. Further, the Activity amounted to 74% in assay [4], 11% in assay [5] and 12% in assay [20]. For the same molecule, the result in the assay on SC4 [21] was inactive.

Take `CCn1c(=O)c(-c2ccc(Cl)cc2Cl)cc2cnc(Nc3ccc(N4CCN(C)CC4)cc3)nc21`: the IC50 in assay [24] turned out to be 20 nM; in [14] it was 559 nM.

Consider `Cc1nc(Nc2n[nH]c3c2CN(C(=O)N[C@H](CN(C)C)c2ccccc2)C3(C)C)c2sccc2n1`, for which the result with SC4 [18] was Active.

Consider `CN1CCN(c2ccc(Nc3ncc4ccc(=O)n(C5CCCC5)c4n3)cc2)CC1`, for which the IC50 in [24] amounted to 483 nM; in assay [14], 580 nM.
